# According to patent US20250262190A1, “USE OF LAT1 INHIBITORS TO TREAT OBESITY” (Georgetown University, priority 2022, published 2025):
# Columns and labels:
# [1] = test system: differentiated adipocytes 3T3L1 co-cultured with macrophage (RAW 264.7 cells); experiment: Adipogenesis in co-culture of adipocyte 3T3L1 and macrophage RAW 264.7 cells; format: cell-based
# Protocol: [Data shown as mean±SE and significance was determined by two-way ANOVA (for analysis shown in Panel B) and unpaired two-tailed t-test (for analysis shown in Panels D-G; *P<0.05, ***P<0.001, ****P<0.0001.]
# A study was conducted to determine which aspects of the adipocyte lineage was affected by inhibition of Slc7a5. To this end, pre-adipocytes or differentiated adipocytes 3T3L1 were co-cultured in the presence of macrophage (RAW 264.7 cells). The experimental design is illustrated in FIG. 10, Panel A.
# The study examined expression of PPARγ and mTOR, and Nile red stained lipid droplets, which are indicators of adipogenesis and are shown to increase in differentiated adipocytes compared to preadipocytes.
# [2] = test system: adipose tissues of HFD-fed mice; experiment: Nile red and Mitotracker staining of adipose tissues of HFD-fed mice; format: in vivo
# Protocol: [“Epi fat”=epididymal white adipose tissue; “SubQ”=inguinal white adipose tissue; “iBAT”=interscapular brown adipose tissue; data shown as mean±standard error (SE) and significance was determined by one-way ANOVA or unpaired two-tailed t-test; *P<0.05, **P<0.01.]
# (§1) A study was conducted to determine if inhibiting Slc7a5 prevents the metabolic response of adipocyte to excess […] intake and obesity. Mice fed with HFD for 3 months were then injected intraperitoneally with either (a) JPH203, a potent Slc7a5 inhibitor, at a dose of 25 mg/kg, or (b) PBS (vehicle) as control, for 15 consecutive days while on HFD (Days 1-15). Mice fed with a normal diet and receiving no injection were included as a comparator.
# HFD-fed mice [3] = experiment: Glucose homeostasis and intraperitoneal glucose tolerance testing in HFD-fed mice; format: in vivo
# Protocol: [data shown as mean±SEM and significance was determined by one-way ANOVA (for analysis shown in Panels A, B, C, D, and G) or multiple unpaired t-test (for analysis shown in Panel F); *P<0.05, **P<0.01, ***P<0.001.]
# as §1
# Mice that were obese due to HFD were hyperglycemic and hyperinsulinemia regardless of fed or fasting status (see FIG. 9, Panels A-D).
# HFD-fed mice [4] = experiment: Toxicity of JPH203 treatment in HFD-fed mice (liver and kidney function, activity, organ mass, whole blood counts); format: in vivo; conditions: 25 mg/kg intraperitoneally
# Protocol: as §1
# In addition, liver function (AST, ALT), kidney function (creatinine), and effect on bone marrow and immune response (whole blood counts) were tested to examine the toxicity of the pharmacological JPH203 treatment. […] Also, there was no effect of JPH203 treatment on liver, heart, or kidney weight (see FIG. 3, Panel E).
# [5] = test system: epididymal white adipose tissue of HFD-fed mice; experiment: Gene expression (mRNA) in epididymal white adipose tissue of HFD-fed mice; format: in vivo
# Protocol: as §1
# To determine if JPH203 affected adipose tissue function, the epididymal and inguinal white adipose tissues were dissected and analyzed 15 days after treatment.
# HFD-fed mice [6] = experiment: Serum levels of adipokine and cytokines by ELISA in HFD-fed mice; format: in vivo; conditions: 25 mg/kg intraperitoneally, 15 days, vs control HFD-fed mice
# Protocol: Panels A-G show serum levels of leptin, insulin like growth factor 1 (IGF1), monocyte chemoattractant protein-1 (MCP1), vascular endothelial growth factor (VEGF), interleukin 1 alpha (ILla), interleukin 1 beta (IL1β), interleukin 6, and tumor necrosis factor alpha (TNFa), respectively, in normal diet-fed mice, HFD-fed mice injected with JPH203, and control HFD-fed mice. [“AU”=arbitrary unit; data shown as mean±SEM and significance was determined by one-way analysis of variance (ANOVA) or unpaired two-tailed t-test; *P<0.05, **P<0.01; ***P<0.001, ****P<0.0001.]
# as §1
# Obesity is correlated with chronically high levels of several cytokines which produced primarily by adipose tissues, which play a role in chronic inflammatory states.
# HFD-fed mice [7] = experiment: Body weight, fat mass and food intake in HFD-fed mice injected with JPH203; format: in vivo; conditions: 25 mg/kg intraperitoneally
# Protocol: as §1
# [8] = co-culture of 3T3L1 and RAW 264.7 cells
# [9] = fully differentiated adipocytes as compared to the preadipocytes, in the presence of macrophages
# [10] = HFD-fed mice injected with JPH203
# [11] = epididymal and inguinal white adipose tissues, vs control HFD-fed mice
# [12] = HFD-fed mice injected with JPH203 vs control HFD-fed mice
# [13] = epididymal adipose tissues, vs control HFD-fed mice
# [14] = epididymal white adipose tissue, 15 days after treatment
# [15] = epididymal white adipose tissue, 15 days after treatment, vs control HFD-fed mice
smiles,measurement,setting,value
"Nc1cc(COc2c(Cl)cc(C[C@H](N)C(=O)O)cc2Cl)c2oc(-c3ccccc3)nc2c1 [JPH203, (S)-2-Amino-3-(4-((5-amino-2-phenylbenzo[d]oxazol-7-yl)methoxy)-3,5-dichlorophenyl)propanoic acid]",adipocyte differentiation,[1]; [8],decreased
same,cell survival / cell death,[1]; [8],does not affect cell survival
same,lipid droplets (Nile red stained),[1]; [8],reduction
same,PPARγ expression,[1]; [9],reduced
same,mTOR expression,[1]; [9],reduced
same,mitochondrial biogenesis in interscapular brown adipose tissues (Mitotracker staining),[2]; [10],significantly increased
same,adipocyte lipid content (Nile red staining),[2]; [11],lower lipid content
same,adipocyte size (Nile red staining),[2]; [11],smaller sized adipocytes
same,reduction in blood glucose concentration after glucose administration (IPGTT),HFD-fed mice [3]; [10],significantly faster reduction
same,correlation of weight loss with decreased baseline glucose,HFD-fed mice [3]; HFD-fed mice injected with JPH203 compared with control HFD-fed mice,positively correlated
same,fasting glucose,HFD-fed mice [3]; [12],lower
same,fed glucose,HFD-fed mice [3]; [12],lower
same,glucose tolerance,HFD-fed mice [3]; [12],improved
same,Creatine levels (kidney function),HFD-fed mice [4]; 15 days,in the normal ranges
same,complete blood counts (CBC): effect on bone marrow and immune response,HFD-fed mice [4]; 15 days,no significant effect
same,mice activity (running wheel experiment),HFD-fed mice [4]; 15 days,does not decrease mice activity
same,AST serum level,"HFD-fed mice [4]; 15 days, normal is 13-35 IU/L",in the normal range
same,ALT serum level,"HFD-fed mice [4]; 15 days, normal is 37-88 IU/L",in the normal range
same,Creatine levels compared with control HFD-fed mice,"HFD-fed mice [4]; 15 days, vs control HFD-fed mice",significantly less
same,"liver, heart, or kidney weight",HFD-fed mice [4]; day 15,no effect
same,genes related to anti-adipogenic factor,[5]; [13],upregulated
same,genes related to energy dissipation/fatty acid β oxidation,[5]; [13],upregulated
same,genes related to fatty acid uptake,[5]; [13],upregulated
same,genes related to glucose uptake/glycolysis,[5]; [13],downregulated
same,genes related to glyceroneogenesis/fatty acid synthesis,[5]; [13],downregulated
same,genes related to lipogenesis,[5]; [13],downregulated
same,genes related to lipolysis,[5]; [13],downregulated
same,genes related to pentose phosphate pathway (NADPH production),[5]; [13],downregulated
same,Hif2α expression (downstream target of mTOR signaling),[5]; [14],decreased
same,Slc7a5 expression,[5]; [14],did not change
same,anti-inflammatory arginase 1 (Arg1) gene expression,[5]; [14],increased
same,proinflammatory nitric oxide synthase 2 (Nos2/Inos) gene expression,[5]; [14],reduced
same,mRNA levels for beiging and browning markers,[5]; [15],increased
same,mRNA levels for general adipogenic markers,[5]; [15],decreased
same,mRNA levels for white adipogenic markers,[5]; [15],decreased
same,serum level of IGF1,HFD-fed mice [6],decreased
same,serum level of IL1α,HFD-fed mice [6],decreased
same,serum level of IL1β,HFD-fed mice [6],decreased
same,serum level of IL6,HFD-fed mice [6],increased
same,serum level of MCP1,HFD-fed mice [6],decreased
same,serum level of TNFα,HFD-fed mice [6],decreased
same,serum level of VEGF,HFD-fed mice [6],decreased
same,serum level of leptin,HFD-fed mice [6],decreased
same,"mass of interscapular brown adipose tissue and epididymal and inguinal white adipose tissue, normal fed mice compared to HFD-fed mice injected with JPH203",HFD-fed mice [7]; at 15 days,not significantly less
same,body weight,"HFD-fed mice [7]; HFD-fed mice, after 15 days, vs HFD-fed mice injected with vehicle (PBS)",significant weight reduction
same,mass of epididymal white adipose tissue,"HFD-fed mice [7]; HFD-fed mice, at 15 days, vs control HFD-fed mice",significantly less
same,appetite suppression (food and water consumption) as contributor to weight loss,"HFD-fed mice [7]; HFD-fed mice, over 15 days",not a major contributing factor
